Active and inactive are the calls of the source.
Experiments:
[1] = target: T1, Histone-lysine N-methyltransferase NSD2 (Homo sapiens, UniProt O96028); assay type: biochemical
T1 sequence (O96028 whole entry): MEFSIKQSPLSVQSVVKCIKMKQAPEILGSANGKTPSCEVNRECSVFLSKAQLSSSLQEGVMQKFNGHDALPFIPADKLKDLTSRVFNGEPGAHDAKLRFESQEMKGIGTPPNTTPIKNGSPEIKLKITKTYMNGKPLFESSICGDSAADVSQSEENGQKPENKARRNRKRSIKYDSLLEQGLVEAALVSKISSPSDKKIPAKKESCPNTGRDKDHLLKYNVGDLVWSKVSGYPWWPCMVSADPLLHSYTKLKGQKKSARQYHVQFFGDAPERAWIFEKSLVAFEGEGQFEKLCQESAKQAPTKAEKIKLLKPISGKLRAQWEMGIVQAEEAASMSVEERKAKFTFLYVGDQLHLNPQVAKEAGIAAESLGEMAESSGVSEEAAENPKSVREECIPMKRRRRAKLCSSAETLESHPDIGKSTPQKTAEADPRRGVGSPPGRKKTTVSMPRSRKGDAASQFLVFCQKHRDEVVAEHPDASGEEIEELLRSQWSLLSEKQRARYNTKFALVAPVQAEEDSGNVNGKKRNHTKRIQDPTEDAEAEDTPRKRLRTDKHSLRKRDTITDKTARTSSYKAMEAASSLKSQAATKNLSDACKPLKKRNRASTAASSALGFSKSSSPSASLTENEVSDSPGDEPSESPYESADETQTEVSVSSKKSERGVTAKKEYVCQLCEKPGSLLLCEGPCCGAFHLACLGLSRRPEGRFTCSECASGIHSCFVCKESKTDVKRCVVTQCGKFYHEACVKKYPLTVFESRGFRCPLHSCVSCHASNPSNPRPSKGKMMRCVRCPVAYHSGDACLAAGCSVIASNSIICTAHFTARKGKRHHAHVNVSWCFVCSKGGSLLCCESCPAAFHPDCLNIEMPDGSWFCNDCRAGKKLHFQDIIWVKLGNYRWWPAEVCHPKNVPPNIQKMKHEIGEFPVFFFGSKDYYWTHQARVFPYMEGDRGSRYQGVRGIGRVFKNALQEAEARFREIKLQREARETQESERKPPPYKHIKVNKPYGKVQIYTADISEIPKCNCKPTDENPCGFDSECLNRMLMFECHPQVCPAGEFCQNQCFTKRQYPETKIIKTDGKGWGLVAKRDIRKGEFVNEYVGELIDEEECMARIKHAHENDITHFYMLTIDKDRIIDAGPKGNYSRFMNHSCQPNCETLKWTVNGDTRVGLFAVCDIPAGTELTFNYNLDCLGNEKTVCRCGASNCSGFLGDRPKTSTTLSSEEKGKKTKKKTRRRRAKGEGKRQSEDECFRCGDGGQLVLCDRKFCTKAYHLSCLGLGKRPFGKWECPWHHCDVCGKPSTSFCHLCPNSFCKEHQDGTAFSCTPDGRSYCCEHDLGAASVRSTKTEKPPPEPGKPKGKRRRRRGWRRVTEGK

Keap1/Nrf2 = Keap1/Nrf2 (Homo sapiens, UniProt Q14145); assay: Keap1-Nrf2 protein-protein interaction inhibitors, dose response, biochemical, fluorescence polarization, cherry-picked samples (AID 588683)
[2] = target: 72 kDa type IV collagenase (Homo sapiens, UniProt P08253); assay: Dose Response validation of uHTS RPN11 inhibitor hits using a MMP-2 Fluorescence assay.; assay type: functional
Prothrombin = Prothrombin (Bos taurus, UniProt P00735); assay: thrombin inhibition, dose response, biochemical, fluorescence polarization, uHTS hits (AID 602369); assay type: functional
[3] = target: 26S proteasome non-ATPase regulatory subunit 14 (Homo sapiens, UniProt O00487); assay: inhibition of proteasome subunit RPN11 – biochemical, fluorescence polarization, uHTS hits, confirmation (AID 602368); assay type: functional
HeLa = assay: HeLa cell cytotoxicity, dose response, cytotoxicity control for MITF activator project, CellTiter-Glo luminescence, cherry-pick samples (AID 540259); assay type: functional, cell-based; conditions: Homo sapiens
[4] = target: Luciferin 4-monooxygenase (Photinus pyralis, UniProt P08659); assay: firefly luciferase enzyme inhibitors, dose response, biochemical, luminescence (AID 1891)
[5] = Luminescence Cell-Based Dose Confirmation HTS to Identify Inhibitors of Platelet Dense Granule Release. [Related pubchem assays: 1663 (Primary HTS), 1678 (Summary of Project)]; assay type: functional
Nonstructural protein 1 = Nonstructural protein 1 (Influenza A virus, UniProt Q194T2); assay type: functional, Influenza A virus (A/California/07/2009(H1N1))
Vero = Vero cell cytotoxicity, cytotoxicity control for flavivirus capping enzyme inhibitors (AID 588742); assay type: functional; conditions: Chlorocebus sabaeus
Hexokinase HKDC1 = target: T2, Hexokinase HKDC1 (Homo sapiens, UniProt Q2TB90); assay: HKDC1 hexokinase inhibitors, dose response, biochemical, W721R variant (AID 504729); assay type: functional
T2 sequence (Q2TB90 whole entry): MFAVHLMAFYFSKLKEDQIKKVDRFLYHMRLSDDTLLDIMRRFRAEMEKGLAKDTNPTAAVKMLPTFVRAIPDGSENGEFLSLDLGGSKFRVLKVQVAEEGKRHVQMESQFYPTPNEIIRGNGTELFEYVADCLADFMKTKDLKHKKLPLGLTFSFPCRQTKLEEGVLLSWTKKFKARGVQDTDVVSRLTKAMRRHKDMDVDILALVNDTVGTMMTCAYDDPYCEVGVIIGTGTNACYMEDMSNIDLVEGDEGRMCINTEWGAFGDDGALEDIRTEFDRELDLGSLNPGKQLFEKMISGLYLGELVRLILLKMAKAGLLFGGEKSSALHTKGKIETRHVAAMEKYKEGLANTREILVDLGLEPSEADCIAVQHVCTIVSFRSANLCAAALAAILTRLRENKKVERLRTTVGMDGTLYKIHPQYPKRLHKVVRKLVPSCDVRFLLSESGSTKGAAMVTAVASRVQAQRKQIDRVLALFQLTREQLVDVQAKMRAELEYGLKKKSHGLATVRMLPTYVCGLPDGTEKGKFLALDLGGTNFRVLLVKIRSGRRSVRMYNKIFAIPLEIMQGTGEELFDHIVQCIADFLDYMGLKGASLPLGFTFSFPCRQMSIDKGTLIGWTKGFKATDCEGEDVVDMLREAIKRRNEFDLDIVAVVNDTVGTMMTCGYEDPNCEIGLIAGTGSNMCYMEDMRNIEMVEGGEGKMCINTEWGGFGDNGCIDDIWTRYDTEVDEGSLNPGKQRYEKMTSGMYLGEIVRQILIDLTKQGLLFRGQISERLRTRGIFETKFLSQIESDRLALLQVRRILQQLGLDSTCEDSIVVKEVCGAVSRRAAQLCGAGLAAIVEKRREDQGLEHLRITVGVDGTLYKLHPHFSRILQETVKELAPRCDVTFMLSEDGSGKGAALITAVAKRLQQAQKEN

Genome polyprotein = Genome polyprotein (dengue virus type 2, UniProt P29990); assay: Dengue-2 NS5 methyltransferase inhibitors, primary screen, biochemical, confirmation dose response (AID 588689); assay type: functional
Chain of Genome polyprotein (P29990 2492-3391 limits assumed): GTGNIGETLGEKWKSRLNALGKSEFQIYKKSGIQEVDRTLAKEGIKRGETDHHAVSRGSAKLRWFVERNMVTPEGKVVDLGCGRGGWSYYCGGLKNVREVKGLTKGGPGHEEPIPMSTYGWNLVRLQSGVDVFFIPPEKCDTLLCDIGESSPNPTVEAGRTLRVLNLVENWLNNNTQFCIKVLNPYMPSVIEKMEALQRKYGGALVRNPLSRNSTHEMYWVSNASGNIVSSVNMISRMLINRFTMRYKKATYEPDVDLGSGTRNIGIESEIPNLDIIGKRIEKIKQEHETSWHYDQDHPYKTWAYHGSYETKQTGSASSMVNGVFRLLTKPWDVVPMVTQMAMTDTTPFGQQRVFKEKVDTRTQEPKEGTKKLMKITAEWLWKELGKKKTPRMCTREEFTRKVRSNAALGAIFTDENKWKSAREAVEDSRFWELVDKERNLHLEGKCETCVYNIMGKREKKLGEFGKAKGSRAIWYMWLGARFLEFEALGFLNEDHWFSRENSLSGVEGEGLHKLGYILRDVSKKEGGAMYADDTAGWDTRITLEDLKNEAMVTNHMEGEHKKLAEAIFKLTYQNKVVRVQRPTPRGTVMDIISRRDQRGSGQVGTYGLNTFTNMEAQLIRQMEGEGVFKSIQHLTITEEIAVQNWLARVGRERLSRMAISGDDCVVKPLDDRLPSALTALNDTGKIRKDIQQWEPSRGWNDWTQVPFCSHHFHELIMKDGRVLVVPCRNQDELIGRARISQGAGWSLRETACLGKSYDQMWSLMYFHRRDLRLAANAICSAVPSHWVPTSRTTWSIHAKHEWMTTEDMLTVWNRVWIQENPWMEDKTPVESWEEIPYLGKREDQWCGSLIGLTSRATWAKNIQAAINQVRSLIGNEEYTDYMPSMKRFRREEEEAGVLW

Chain of 72 kDa type IV collagenase (P08253 whole entry): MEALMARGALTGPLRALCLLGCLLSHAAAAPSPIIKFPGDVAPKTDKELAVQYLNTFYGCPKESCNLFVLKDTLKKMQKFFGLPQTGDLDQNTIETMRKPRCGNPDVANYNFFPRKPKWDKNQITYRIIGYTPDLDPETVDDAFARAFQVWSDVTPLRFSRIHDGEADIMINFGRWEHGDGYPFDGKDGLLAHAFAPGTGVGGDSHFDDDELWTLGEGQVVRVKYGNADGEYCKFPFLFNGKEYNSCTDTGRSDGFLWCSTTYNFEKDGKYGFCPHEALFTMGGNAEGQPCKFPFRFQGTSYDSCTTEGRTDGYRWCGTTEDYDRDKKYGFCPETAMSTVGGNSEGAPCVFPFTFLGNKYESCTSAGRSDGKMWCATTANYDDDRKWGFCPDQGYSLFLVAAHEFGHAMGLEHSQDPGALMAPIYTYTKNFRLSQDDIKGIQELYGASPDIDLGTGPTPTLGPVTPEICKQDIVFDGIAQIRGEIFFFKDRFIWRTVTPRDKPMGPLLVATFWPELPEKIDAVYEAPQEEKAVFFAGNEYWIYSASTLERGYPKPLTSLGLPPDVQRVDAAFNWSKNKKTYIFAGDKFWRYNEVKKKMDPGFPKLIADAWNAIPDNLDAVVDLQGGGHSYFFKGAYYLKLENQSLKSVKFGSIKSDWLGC
Chain of Keap1/Nrf2 (Q16236 whole entry): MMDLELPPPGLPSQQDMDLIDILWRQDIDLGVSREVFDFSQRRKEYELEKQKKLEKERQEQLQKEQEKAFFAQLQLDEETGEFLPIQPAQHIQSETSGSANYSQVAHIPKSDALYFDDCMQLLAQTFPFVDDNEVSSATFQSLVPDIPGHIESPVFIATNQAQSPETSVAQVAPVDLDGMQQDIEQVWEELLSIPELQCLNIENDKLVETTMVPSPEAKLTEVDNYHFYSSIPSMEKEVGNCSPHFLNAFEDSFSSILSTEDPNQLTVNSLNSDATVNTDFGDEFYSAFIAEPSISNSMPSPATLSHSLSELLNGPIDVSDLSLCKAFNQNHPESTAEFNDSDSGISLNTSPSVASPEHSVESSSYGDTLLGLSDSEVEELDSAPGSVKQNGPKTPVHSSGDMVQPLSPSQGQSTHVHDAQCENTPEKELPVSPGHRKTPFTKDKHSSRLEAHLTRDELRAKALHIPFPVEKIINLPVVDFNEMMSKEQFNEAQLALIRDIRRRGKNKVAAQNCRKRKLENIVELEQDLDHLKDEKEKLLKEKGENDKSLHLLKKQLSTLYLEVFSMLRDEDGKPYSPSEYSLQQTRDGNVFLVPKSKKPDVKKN
Chain of Keap1/Nrf2 (Q14145 whole entry): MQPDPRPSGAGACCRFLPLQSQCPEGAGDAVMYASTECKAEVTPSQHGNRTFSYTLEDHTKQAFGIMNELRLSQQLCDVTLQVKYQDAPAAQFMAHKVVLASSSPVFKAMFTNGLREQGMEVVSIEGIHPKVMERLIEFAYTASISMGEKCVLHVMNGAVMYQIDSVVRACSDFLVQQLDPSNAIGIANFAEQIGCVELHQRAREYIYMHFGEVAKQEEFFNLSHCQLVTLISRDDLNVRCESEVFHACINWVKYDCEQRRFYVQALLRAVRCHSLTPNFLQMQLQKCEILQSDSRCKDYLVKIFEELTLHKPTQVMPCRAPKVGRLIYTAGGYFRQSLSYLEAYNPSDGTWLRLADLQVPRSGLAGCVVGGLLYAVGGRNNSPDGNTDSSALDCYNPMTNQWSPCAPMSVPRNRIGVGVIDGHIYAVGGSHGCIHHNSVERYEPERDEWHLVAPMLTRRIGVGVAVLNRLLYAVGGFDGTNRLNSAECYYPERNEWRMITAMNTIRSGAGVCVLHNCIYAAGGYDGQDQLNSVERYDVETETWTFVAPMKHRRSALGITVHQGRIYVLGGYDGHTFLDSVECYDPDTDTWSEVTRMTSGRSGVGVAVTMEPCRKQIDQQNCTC
Chain of Luciferin 4-monooxygenase (P08659 whole entry): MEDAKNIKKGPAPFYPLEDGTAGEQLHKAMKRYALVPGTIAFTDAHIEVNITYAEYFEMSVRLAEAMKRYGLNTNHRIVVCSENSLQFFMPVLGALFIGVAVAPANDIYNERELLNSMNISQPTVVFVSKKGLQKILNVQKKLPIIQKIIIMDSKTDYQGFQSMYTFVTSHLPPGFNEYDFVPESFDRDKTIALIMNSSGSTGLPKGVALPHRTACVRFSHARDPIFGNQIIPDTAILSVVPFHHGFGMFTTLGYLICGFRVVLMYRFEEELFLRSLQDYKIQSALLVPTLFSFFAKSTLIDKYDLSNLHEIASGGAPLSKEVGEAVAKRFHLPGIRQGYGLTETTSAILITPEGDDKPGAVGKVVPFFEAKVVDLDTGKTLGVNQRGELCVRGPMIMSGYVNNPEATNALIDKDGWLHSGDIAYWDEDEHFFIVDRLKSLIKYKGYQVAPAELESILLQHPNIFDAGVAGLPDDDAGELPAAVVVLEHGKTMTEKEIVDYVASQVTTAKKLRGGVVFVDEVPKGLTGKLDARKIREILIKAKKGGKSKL
Chain of 26S proteasome non-ATPase regulatory subunit 14 (O00487 whole entry): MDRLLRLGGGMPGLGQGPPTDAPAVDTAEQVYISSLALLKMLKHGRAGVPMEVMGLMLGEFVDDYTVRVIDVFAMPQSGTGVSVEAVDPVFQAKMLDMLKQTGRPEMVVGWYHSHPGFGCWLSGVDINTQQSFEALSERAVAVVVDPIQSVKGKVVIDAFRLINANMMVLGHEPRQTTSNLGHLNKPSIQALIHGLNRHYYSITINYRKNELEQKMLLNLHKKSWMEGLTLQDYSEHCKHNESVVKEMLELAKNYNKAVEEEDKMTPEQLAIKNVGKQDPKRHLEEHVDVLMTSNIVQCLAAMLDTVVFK
Chain of Nonstructural protein 1 (Q194T2 whole entry): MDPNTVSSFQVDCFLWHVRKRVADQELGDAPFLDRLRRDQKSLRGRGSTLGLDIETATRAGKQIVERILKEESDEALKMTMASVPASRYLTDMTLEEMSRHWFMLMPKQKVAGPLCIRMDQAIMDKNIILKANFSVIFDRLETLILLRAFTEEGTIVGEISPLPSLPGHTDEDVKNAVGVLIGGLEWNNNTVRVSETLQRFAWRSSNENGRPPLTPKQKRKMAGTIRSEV

For `C/C(C/C(C)=C1/SC(=S)NC1=O)=C1\SC(=S)NC1=O`, which AC50 [1] is on record?
Its AC50 is 7.93 µM (active).

What about the AC50 (Keap1/Nrf2) of the same compound?
Its AC50 is > 52 µM (inactive).

And the IC50 [2]?
The IC50 was 302 nM (active).

And the IC50 (Prothrombin)?
The IC50 was 87.5 µM (active).

What about the IC50 [3] of the same compound?
Its IC50 is 43.6 µM (active).

With `CC1(C)CC(=O)c2c(O)cc(OCc3ccc(Br)cc3)cc2O1` as the compound, how does the AC50 (HeLa) read?
Its AC50 is 70.4 µM (active).

Which results are given for `CSc1nc(N)n2nc(-c3ccc(Cl)cc3)cc2n1`?
EC50 [4]: 464 nM (active); AC50 (HeLa): 71.6 µM (active); EC50 [5]: 3.88 µM (active)

For `Cc1ccc(SC2=C(N(C)C)C(=O)c3ccccc3C2=O)cc1`, which IC50 (Nonstructural protein 1) is on record?
The IC50 was 8.5 µM (active).

And the CC50 (Vero)?
The CC50 was 22.1 µM (active).

What about the IC50 (Hexokinase HKDC1) of the same compound?
The IC50 was 6.72 µM (active).

And the IC50 (Genome polyprotein)?
Its IC50 is 65 µM (active).
